In patent US9247741B2, “Use of macrocyclic picolinamides as fungicides” (DOW AGROSCIENCES LLC, priority 2013, dated 2016):
Read-outs that look alike come from different tables or passages of the source.

Tests used:
Type in all cases: in vivo
[1] = test system: Blumeria graminis Fsp. Hordei; assay: Barley powdery mildew (ERYSGH) disease control; settings: 24 h, 1 Day Protectant, read-out: ERYSGH disease control rating
Procedure: Technical grades of materials were dissolved in acetone, which were then mixed with nine volumes of water containing 110 ppm Triton X-100. The fungicide solutions were applied onto wheat seedlings using an automated booth sprayer to run-off. All sprayed plants were allowed to air dry prior to further handling. All fungicides were evaluated using the aforementioned method for their activity vs. all target diseases. Wheat leaf blotch and brown rust activity were also evaluated using track spray applications, in which case the fungicides were formulated as EC formulations, containing 0.1% Trycol 5941 in the spray solutions. Wheat plants (variety Yuma) were grown from seed in a greenhouse in 50% mineral soil/50% soil-less Metro mix until the first leaf was fully emerged, with 7-10 seedlings per pot. These plants were inoculated with an aqueous spore suspension of Septoria tritici either prior to or after fungicide treatments. After inoculation the plants were kept in 100% relative humidity (one day in a dark dew chamber followed by two to three days in a lighted dew chamber at 20° C.) to permit spores to germinate and infect the leaf. The plants were then transferred to a greenhouse set at 20° C. for disease to develop. When disease symptoms were fully expressed on the l^st leaves of untreated plants, infection levels were assessed on a scale of 0 to 100 percent disease severity. Percent disease control was calculated using the ratio of disease severity on treated plants relative to untreated plants. Evaluation of Fungicidal Activity: Barley Powdery Mildew (Blumeria graminis Fsp. Hordei; Synonym: Erysiphe graminis Fsp. Hordei; Bayer Code […]) Barley seedlings (variety Harrington) were propagated in soil-less Metro mix, with each pot having 8 to 12 plants, and used in the test when first leaf was fully emerged. Test plants were inoculated by dusting with infected stock plants 24 hr after fungicide treatments. After inoculation the plants were kept in a greenhouse set at 20° C. for disease to develop. Fungicide formulation, application and disease assessment on the sprayed leaves followed the procedures as described in the Example A.

[2] = test system: Leptosphaeria nodorum; assay: Wheat glume blotch (LEPTNO) disease control; settings: Parastagonospora nodorum, 24 h, 1 Day Protectant, read-out: LEPTNO disease control rating
Procedure: Technical grades of materials were dissolved in acetone, which were then mixed with nine volumes of water containing 110 ppm Triton X-100. The fungicide solutions were applied onto wheat seedlings using an automated booth sprayer to run-off. All sprayed plants were allowed to air dry prior to further handling. All fungicides were evaluated using the aforementioned method for their activity vs. all target diseases. Wheat leaf blotch and brown rust activity were also evaluated using track spray applications, in which case the fungicides were formulated as EC formulations, containing 0.1% Trycol 5941 in the spray solutions. Wheat plants (variety Yuma) were grown from seed in a greenhouse in 50% mineral soil/50% soil-less Metro mix until the first leaf was fully emerged, with 7-10 seedlings per pot. These plants were inoculated with an aqueous spore suspension of Septoria tritici either prior to or after fungicide treatments. After inoculation the plants were kept in 100% relative humidity (one day in a dark dew chamber followed by two to three days in a lighted dew chamber at 20° C.) to permit spores to germinate and infect the leaf. The plants were then transferred to a greenhouse set at 20° C. for disease to develop. When disease symptoms were fully expressed on the l^st leaves of untreated plants, infection levels were assessed on a scale of 0 to 100 percent disease severity. Percent disease control was calculated using the ratio of disease severity on treated plants relative to untreated plants. Evaluation of Fungicidal Activity: Wheat Glume Blotch (Leptosphaeria nodorum; Bayer Code […]) Wheat plants (variety Yuma) were grown from seed in a greenhouse in 50% mineral soil/50% soil-less Metro mix until the first leaf was fully emerged, with 7-10 seedlings per pot. These plants were inoculated with an aqueous spore suspension of Leptosphaeria nodorum 24 hr after fungicide treatments. After inoculation the plants were kept in 100% relative humidity (one day in a dark dew chamber followed by two days in a lighted dew chamber at 20° C.) to permit spores to germinate and infect the leaf. The plants were then transferred to a greenhouse set at 20° C. for disease to develop. Fungicide formulation, application and disease assessment followed the procedures as described in the Example A.

[3] = test system: Puccinia triticina; assay: Wheat brown rust (PUCCRT) disease control on wheat seedlings; settings: for pest or weed control at 121.5 g/ha: 121.5 g/H (low volume track spray); for pest or weed control at 100 ppm: 100 ppm (high volume)
Procedure: Technical grades of materials were dissolved in acetone, which were then mixed with nine volumes of water containing 110 ppm Triton X-100. The fungicide solutions were applied onto wheat seedlings using an automated booth sprayer to run-off. All sprayed plants were allowed to air dry prior to further handling. All fungicides were evaluated using the aforementioned method for their activity vs. all target diseases. Wheat leaf blotch and brown rust activity were also evaluated using track spray applications, in which case the fungicides were formulated as EC formulations, containing 0.1% Trycol 5941 in the spray solutions. Wheat plants (variety Yuma) were grown from seed in a greenhouse in 50% mineral soil/50% soil-less Metro mix until the first leaf was fully emerged, with 7-10 seedlings per pot. These plants were inoculated with an aqueous spore suspension of Septoria tritici either prior to or after fungicide treatments. After inoculation the plants were kept in 100% relative humidity (one day in a dark dew chamber followed by two to three days in a lighted dew chamber at 20° C.) to permit spores to germinate and infect the leaf. The plants were then transferred to a greenhouse set at 20° C. for disease to develop. When disease symptoms were fully expressed on the l^st leaves of untreated plants, infection levels were assessed on a scale of 0 to 100 percent disease severity. Percent disease control was calculated using the ratio of disease severity on treated plants relative to untreated plants. Evaluation of Fungicidal Activity: Wheat Brown Rust (Puccinia triticina; Synonym: Puccinia recondite f sp. tritici; Bayer code PUCCRT) Wheat plants (variety Yuma) were grown from seed in a greenhouse in 50% mineral soil/50% soil-less Metro mix until the first leaf was fully emerged, with 7-10 seedlings per pot. These plants were inoculated with an aqueous spore suspension of Puccinia triticina either prior to or after fungicide treatments. After inoculation the plants were kept in a dark dew room at 22° C. with 100% relative humidity overnight to permit spores to germinate and infect the leaf. The plants were then transferred to a greenhouse set at 24° C. for disease to develop. Fungicide formulation, application and disease assessment followed the procedures as described in the Example A.

[4] = 24 h, 1 Day Protectant, read-out: PUCCRT 1DP disease control rating
[5] = 72 h, 3 Day Curative, read-out: PUCCRT 3DC disease control rating

Row | SMILES | pest or weed control at 100 ppm [1] | pest or weed control at 100 ppm [2] | pest or weed control at 121.5 g/ha [3, 4] | pest or weed control at 121.5 g/ha [3, 5] | pest or weed control at 100 ppm [3, 4] | pest or weed control at 100 ppm [3, 5]
1 | CCCC[C@H]1[C@H](C)OC(=O)[C@@H](NC(=O)c2nccc(OC)c2OCOC(C)=O)CCC[C@@H]1Oc1ccccc1 [Compound 33] | > 70% | > 70% | > 70% | > 70% |  | 
2 | CCCC[C@H]1[C@H](C)OC(=O)[C@@H](NC(=O)c2nccc(OC)c2OCOC(C)=O)CCC[C@@H]1OCC1CC1 [Compound 73] | > 70% | > 70% | > 70% | > 70% |  | 
3 | CCCO[C@H]1CCC[C@H](NC(=O)c2nccc(OC)c2OC(C)=O)C(=O)O[C@@H](C)[C@@H]1CCC(C)C [Compound 74, 2-(((3S,7S,8S,9S)-8-isopentyl-9-methyl-2-oxo-7-propoxyoxonan-3-yl)carbamoyl)-4-methoxypyridin-3-yl acetate] | < 70% | > 70% | > 70% | > 70% |  | 
4 | CCCO[C@H]1CCC[C@H](NC(=O)c2nccc(OC)c2OC(C)=O)C(=O)O[C@@H](C)[C@@H]1Cc1ccccc1 [Compound 70] | < 70% | > 70% | > 70% | > 70% | > 70% | > 70%
5 | COc1ccnc(C(=O)N[C@H]2CCC[C@H](Oc3ccccc3)[C@@H](CCC(C)C)[C@H](C)OC2=O)c1OCOC(C)=O [Compound 40] | > 70% | > 70% | > 70% | > 70% |  | 
6 | COc1ccnc(C(=O)N[C@H]2CCC[C@H](Oc3ccccc3)[C@@H](CCC(C)C)[C@H](C)OC2=O)c1OC(C)=O [Compound 36] | > 70% | > 70% | > 70% | < 70% |  | 
7 | COc1ccnc(C(=O)N[C@H]2CCC[C@H](OCC3CC3)[C@@H](Cc3ccc(F)cc3)[C@H](C)OC2=O)c1OCOC(C)=O [Compound 61] | < 70% | > 70% | > 70% | > 70% |  | 
8 | CCCO[C@H]1CCC[C@H](NC(=O)c2nccc(OC)c2OCOC(C)=O)C(=O)O[C@@H](C)[C@@H]1CCC(C)C [Compound 25, ((2-(((3S,7S,8S,9S)-8-isopentyl-9-methyl-2-oxo-7-propoxyoxonan-3-yl)carbamoyl)-4-methoxypyridin-3-yl)oxy)methyl acetate] | > 70% | > 70% | > 70% | > 70% |  | 
